Source: US7964620B2, “Imidazole derivatives” (Hoffmann-La Roche Inc., priority 2003, dated 2011)

These molecules were tested against T1, human mGlu 5a receptor (Homo sapiens, UniProt P41594) (assay: [3H]MPEP competition binding on membranes of EBNA cells transiently transfected with human mGlu 5a receptor). Conditions: competition with 2 nM [3H]MPEP, 1 h at 4° C., Ki=IC50/[1+L/Kd].
T1 construct: expressed in transfected cells; host or cells: EBNA cells (transient transfection); cell membrane homogenates
T1 sequence (P41594 21-1180 isoform P41594-2 limits assumed): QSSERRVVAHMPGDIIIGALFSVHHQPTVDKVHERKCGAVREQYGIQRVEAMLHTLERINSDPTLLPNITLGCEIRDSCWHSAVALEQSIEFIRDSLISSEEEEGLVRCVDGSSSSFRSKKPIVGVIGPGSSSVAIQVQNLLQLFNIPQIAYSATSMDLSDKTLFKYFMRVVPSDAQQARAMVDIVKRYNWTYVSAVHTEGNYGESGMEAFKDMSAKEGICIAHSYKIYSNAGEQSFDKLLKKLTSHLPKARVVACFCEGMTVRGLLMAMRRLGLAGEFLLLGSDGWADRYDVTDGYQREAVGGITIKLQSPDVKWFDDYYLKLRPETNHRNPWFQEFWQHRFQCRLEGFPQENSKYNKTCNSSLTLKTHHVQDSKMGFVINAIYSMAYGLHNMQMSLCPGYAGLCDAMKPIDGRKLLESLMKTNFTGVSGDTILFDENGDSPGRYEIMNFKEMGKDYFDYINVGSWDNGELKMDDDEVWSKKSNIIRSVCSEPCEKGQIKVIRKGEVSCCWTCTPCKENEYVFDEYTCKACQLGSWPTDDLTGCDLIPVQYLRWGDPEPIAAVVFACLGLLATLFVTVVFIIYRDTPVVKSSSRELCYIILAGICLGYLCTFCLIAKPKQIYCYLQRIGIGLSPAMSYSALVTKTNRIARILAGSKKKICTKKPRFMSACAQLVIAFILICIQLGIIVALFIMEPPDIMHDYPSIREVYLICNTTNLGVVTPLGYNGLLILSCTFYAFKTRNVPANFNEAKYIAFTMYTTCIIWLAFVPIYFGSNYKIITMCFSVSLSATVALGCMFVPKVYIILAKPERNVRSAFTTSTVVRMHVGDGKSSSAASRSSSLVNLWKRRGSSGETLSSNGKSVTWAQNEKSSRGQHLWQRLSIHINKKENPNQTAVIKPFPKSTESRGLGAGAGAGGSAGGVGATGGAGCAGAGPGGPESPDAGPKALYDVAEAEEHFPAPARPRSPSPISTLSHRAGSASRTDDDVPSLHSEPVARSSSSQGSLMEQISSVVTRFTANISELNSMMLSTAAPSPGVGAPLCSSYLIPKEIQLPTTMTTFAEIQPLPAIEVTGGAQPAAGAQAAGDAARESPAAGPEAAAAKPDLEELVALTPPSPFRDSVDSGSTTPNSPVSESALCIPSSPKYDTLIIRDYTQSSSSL
Method: For binding experiments, cDNA encoding human mGlu 5a receptor was transiently trans-fected into EBNA cells using a procedure described by Schlaeger and Christensen [Cyto-technology 15:1-13 (1998)]. Cell membrane homogenates were stored at −80° C. until the day of assay where upon they were thawed and resuspended and polytronized in 15 mM Tris-HCl, 120 mM NaCl, 100 mM KCl, 25 mM CaCl2, 25 mM MgCl2 binding buffer at pH 7.4 to a final assay concentration of 20 μg protein/well.
Saturation isotherms were determined by addition of twelve [^3H]MPEP concentrations (0.04-100 nM) to these membranes (in a total volume of 200 μl) for 1 h at 4° C. Competition experiments were performed with a fixed concentration of [^3H]MPEP (2 nM) and IC50 values of test compounds evaluated using 11 concentrations (0.3-10,000 nM). Incubations were performed for 1 h at 4° C.
At the end of the incubation, membranes were filtered onto unifilter (96-well white microplate with bonded GF/C filter preincubated 1 h in 0.1% PEI in wash buffer, Packard BioScience, Meriden, Conn.) with a Filtermate 96 harvester (Packard BioScience) and washed 3 times with cold 50 mM Tris-HCl, pH 7.4 buffer. Nonspecific binding was measured in the presence of 10 μM MPEP. The radioactivity on the filter was counted (3 min) on a Packard Top-count microplate scintillation counter with quenching correction after addition of 45 μl of microscint 40 (Can berra Packard S. A., Zürich, Switzerland) and shaking for 20 min. For functional assays, [Ca^2+]i measurements were performed as described previously by Porter et al. [Br. J. Pharmacol. 128:13-20 (1999)] on recombinant human mGlu 5a receptors in HEK-293 cells. The cells were dye loaded using Fluo 4-AM (obtainable by FLUKA, 0.2 μM final concentration). [Ca^2+]i measurements were performed using a fluorometric imaging plate reader (FLIPR, Molecular Devices Corporation, La Jolla, Calif., USA). Antagonist evaluation was performed following a 5 min preincubation with the test compounds followed by the addition of a submaximal addition of agonist.
The inhibition (antagonists) curves were fitted with a four parameter logistic equation giving IC50, and Hill coefficient using an iterative non linear curve fitting software (Xcel fit). For binding experiments the Ki values of the compounds tested are given. The Ki value is defined by the following formula: Ki=IC50/[1+L/Kd] in which the IC50 values are those concentrations of the compounds tested which cause 50% inhibition of the competing radioligand ([^3H]MPEP). L is the concentration of radioligand used in the binding experiment and the Kd value of the radioligand is empirically determined for each batch of membranes prepared.

Row | SMILES | Ki [nM]
1 | Cc1nc(C#Cc2cccc(Cl)c2)cn1Cc1ccccn1 [Example 3, 2-[4-(3-Chloro-phenylethynyl)-2-methyl-imidazol-1-ylmethyl]-pyridine] | 40
2 | Cc1cc(C#Cc2cn(Cc3cccc(C)n3)c(C)n2)ccn1 [Example 4, 4-[1-(6-Methyl-pyridin-2-ylmethyl)-2-methyl-1H-imidazol-4-ylethynyl]-2-methyl-pyridine] | 93

Results, then the molecule that gave them:

Row | Ki [nM] | SMILES
3 | 77 | Cc1cc(C#Cc2cn(C(C)c3ccccc3)c(C)n2)ccn1 (racemic) [Example 23, rac-2-Methyl-4-[2-methyl-1-(1-phenyl-ethyl)-1H-imidazol-4-ylethynyl]-pyridine]
4 | 94 | Cc1nc(C#Cc2cccc(C#N)c2)cn1Cc1cncc(Cl)c1 [Example 18, 3-[1-(5-Chloro-pyridin-3-ylmethyl)-2-methyl-1H-imidazol-4-ylethynyl]-benzonitrile]
5 | 33 | Cc1cc(C#Cc2cn(CCc3ccccc3)c(C)n2)ccn1 [Example 29, 2-Methyl-4-(2-methyl-1-phenethyl-1H-imidazol-4-ylethynyl)-pyridine]
